pIC50: −log10 of the molar value. Activity calls are given as the source filed them. No cut-off for these calls is given here.

Data set [1] concerns the target T1, Protein cereblon/B-cell lymphoma 6 protein (Homo sapiens, UniProt Q96SW2+P41182). As to the kind of experiment: In vivo PROTAC activity at CRBN/BCL6 in female nude nu/nu mouse model xenografted with human SU-DHL-4 cells assessed as downregulation of BCL6 protein level in tumor at 40 mg/kg, ip measured after 5 hrs of last dose by Western blot analysis. Type of data set: functional, organism-based. To be noted: SUD4.

Data set [2] has as its target T1, Protein cereblon/B-cell lymphoma 6 protein. The experiment in a line: PROTAC activity at CRBN/BCL6 in BCL6-dependent human SU-DHL-4 cells assessed as induction of BCL6 degradation by measuring degradation rate at 10 uM incubated for 48 hrs by Western blot analysis relative to control. Type of data set: cell-based.
Data set [3] relates to SUD4. The experiment in a line: Antiproliferative activity against BCL6-dependent human SU-DHL-4 cells assessed as inhibition of cell growth at 10 uM measured after 6 days by MTT assay relative to control. Type of data set: functional. Particulars: SU-DHL-4, 144 h, time 6 day.
Data set [4] has as its system SUD4. The experiment in a line: Antiproliferative activity against BCL6-dependent human SU-DHL-4 cells assessed as inhibition in cell growth measured after 6 days by MTT assay. To be noted: SU-DHL-4, 144 h.
The test system of the next data set is SU-DHL-6. The experiment in a line: Antiproliferative activity against BCL6-dependent human SU-DHL-6 cells assessed as inhibition in cell growth measured after 6 days by MTT assay. Particulars: SU-DHL-6, 144 h.
Data set [5] is described as follows: (§1) Cytotoxicity against HEK293T cells assessed as inhibition in cell growth measured after 6 days by MTT assay. Type of data set: toxicity, cell-based, HEK-293T. To be noted: human, HEK293T cells.
The next data set concerns HEK-293T. The data set is described as §1. Type of data set: toxicity, cell-based. To be noted: human, hek-293t, 144 h; time 6 day.
Data set [6] can be described thus: Tmax in male Sprague-Dawley rat at 10 mg/kg, ip measured upto 24 hrs by LC-MS/MS analysis. Type of data set: ADME, organism-based. Particulars: in vivo.
A short description of data set [7]: AUC (0 to infinity) in male Sprague-Dawley rat at 10 mg/kg, ip measured upto 24 hrs by LC-MS/MS analysis. Type of data set: ADME, organism-based. To be noted: in vivo.
Data set [8] is described as follows: MRT (0 to t) in male Sprague-Dawley rat at 10 mg/kg, ip measured upto 24 hrs by LC-MS/MS analysis. Type of data set: ADME, organism-based. To be noted: in vivo.
Data set [9] in a line: MRT (0 to t) in male Sprague-Dawley rat at 20 mg/kg, po measured upto 24 hrs by LC-MS/MS analysis. Type of data set: ADME, organism-based. Particulars: in vivo.
Data set [10] has as its target T1, Protein cereblon/B-cell lymphoma 6 protein. As to the kind of experiment: PROTAC activity at CRBN/BCL6 in human DOHH-2 cells assessed as induction of BCL6 degradation by measuring maximal efficacy incubated for 48 hrs by Western blot analysis relative to control. Type of data set: cell-based.
Data set [11] concerns SUD4. The experiment in a line: Upregulation of CDKN1A mRNA level in human SU-DHL-4 cells at 10 uM incubated for 48 hrs by RT-qPCR analysis. Type of data set: functional, cell-based.
For data set [12], the system named is SUD4. The experiment in a line: Upregulation of p21 protein level in human SU-DHL-4 cells at 5 uM by Western blot analysis. Type of data set: functional, cell-based. Particulars: time 12-72 hrs, TDE = time-dependent effect.
The subject of data set [13] is SUD4. As to the kind of experiment: Upregulation of p21 protein level in human SU-DHL-4 cells at 5 uM preincubated for 48 hrs followed by compound elution and measured after 72 hrs by Western blot analysis. Type of data set: functional, cell-based.
The subject of data set [14] is SUD4. As to the kind of experiment: Induction of cell cycle arrest in human SU-DHL-4 cells assessed as accumulation of cells at G1 phase incubated for 72 hrs by flow cytometry analysis. Type of data set: functional, cell-based. To be noted: dose 0.1-10 µM.
The test system of data set [15] is SUD4. As to the kind of experiment: Induction of cell cycle arrest in human SU-DHL-4 cells assessed as increase in G1 phase cell population at 1 uM measured after 72 hrs by flow cytometry analysis (reference value: 61.4%). Type of data set: functional.
Data set [16] is described as follows: Antitumor activity against human SU-DHL-4 cells xenografted in female nude nu/nu mouse assessed as tumor growth inhibition at 10 mg/kg, ip measured after 21 days by microcaliper based analysis relative to control. To be noted: SU-DHL-4, 504 h, time 21 day, read-out: TGI. Type of data set: functional, SUD4.
The target in data set [17] is T1, Protein cereblon/B-cell lymphoma 6 protein. The experiment in a line: In vivo PROTAC activity at CRBN/BCL6 in female nude nu/nu mouse model xenografted with human SU-DHL-4 cells assessed as increase in p27 protein level in tumor at 40 mg/kg, ip measured after 5 hrs of last dose by Western blot analysis. Type of data set: functional, organism-based. To be noted: SUD4.

For data set [18] the target is unchanged. The experiment in a line: PROTAC activity at CRBN/BCL6 in human Ibrutinib resistant DOHH2 cells assessed as induction of BCL6 degradation at 0.1 to 10 uM incubated for 48 hrs by Western blot analysis. To be noted: dose 0.1-10 µM. Type of data set: cell-based.
The subject of data set [19] is SUD4. The experiment in a line: Upregulation of p27 protein level in human SU-DHL-4 cells at 5 uM preincubated for 48 hrs followed by compound elution and measured after 72 hrs by Western blot analysis. Type of data set: functional, cell-based.
The test system of data set [20] is Ibrutinib resistant DOHH2 cell. The experiment in a line: Upregulation of p27 protein level in human Ibrutinib resistant DOHH2 cells at 0.1 to 10 uM incubated for 48 hrs by Western blot analysis. To be noted: dose 0.1-10 µM. Type of data set: functional, cell-based.

T1 sequence (Q96SW2 whole entry, looked up, other chains not shown): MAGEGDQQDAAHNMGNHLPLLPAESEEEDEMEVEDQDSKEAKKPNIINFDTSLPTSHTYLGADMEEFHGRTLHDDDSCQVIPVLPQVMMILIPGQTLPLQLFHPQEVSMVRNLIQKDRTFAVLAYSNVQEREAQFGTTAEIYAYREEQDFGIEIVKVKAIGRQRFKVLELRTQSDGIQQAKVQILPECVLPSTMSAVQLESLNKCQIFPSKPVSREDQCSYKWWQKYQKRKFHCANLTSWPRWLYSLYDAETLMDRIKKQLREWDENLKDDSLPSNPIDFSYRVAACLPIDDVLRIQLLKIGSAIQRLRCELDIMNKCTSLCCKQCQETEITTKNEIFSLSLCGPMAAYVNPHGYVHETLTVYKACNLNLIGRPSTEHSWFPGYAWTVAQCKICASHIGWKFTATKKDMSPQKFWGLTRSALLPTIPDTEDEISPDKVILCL

Regarding `COc1cc(Nc2nc(N3CCN(CCOCCNc4cccc5c4C(=O)N(C4CCC(=O)NC4=O)C5=O)CC3)ncc2F)ccc1NC(=O)c1ccc(C2=CCCC2)s1` (configuration not stated), the outcome (in data set [1]; in the data set on SUD4 [11]; in the data set on SUD4 [13]; in data set [17]; in data set [18]; in the data set with SUD4 [19]) was Active. Besides, in data set [20], the result was Active. For the same compound, the Activity in data set [2] was 94.4%; in the data set with HEK-293T, “Dose-Dependent Effect”; with SUD4 [12] it was “Tde”; with SUD4 [14], “Dose-Dependent Effect”; in the data set with SUD4 [15] it was 86.7%. Further, the inhibition at 10 µM in the data set with SUD4 [3] turned out to be 92.6%. Also, the pIC50 in the data set on SUD4 [4] was 6.40; in the data set on SU-DHL-6 it was 6.35. The IC50 at 6 days in data set [5] was above 10 µM. Moreover, in data set [6], the time of peak concentration (Tmax) was 2.67 h. For the same compound, the AUC(0-inf) in data set [7] was 33.9 µg·h/mL. The MRT last at 24 h in data set [8] is 5.3 h; in [9], 2.48 h. The Emax in data set [10] is 93.7%. The inhibition in vivo at 10 mg/kg in data set [16] stood at 22.2%.

Values taken from ChEMBL document CHEMBL5614419, “Discovery of novel BCL6-Targeting PROTACs with effective antitumor activities against DLBCL in vitro and in vivo” (Eur J Med Chem, 2024).
